Test results taken from publication PMC12389646, “Design, Synthesis, and Bioactivity Assessment of Modified Vemurafenib Analog” (Pharmaceuticals, 2025).

Legend:
[1] = system: human melanoma A375 cells; assay: MTS cell viability assay, A375; assay type: cell-based; conditions: A-375, 24 h treatment, 0.01-10 μM tested
Description: (§1) The human cutaneous melanoma cancer cell line A375, obtained from the American Type Culture Collection (ATCC, Rockville, MD, USA) and human embryonic kidney HEK293T cell line, obtained from Rio de Janeiro Cell Bank (BCRJ, Rio de Janeiro, Brazil), were cultured in Dulbecco’s Modified Eagle’s Medium (DMEM, Sigma-Aldrich, St. Louis, MO, USA) supplemented with L-glutamine (2 mM), 10% fetal bovine serum (FBS), 50 IU/mL penicillin and 50 μg/mL streptomycin (Sigma-Aldrich, St. Louis, MO, USA). Cells were maintained at 37 °C in a humidified atmosphere containing 5% CO2. Low cell passages (between 5 and 20) were used in the present study.
(§2) Cell viability was measured using an MTS method based on the conversion of the tetrazolium salt MTS (3-(4,5-dimethylthiazol-2-yl)-5-(3-carboxymethoxyphenyl)-2-(4-sulfophenyl)-2H-tetrazolium, Sigma-Aldrich, St. Louis, MO, USA) to a purple formazan in the presence of phenazine methosulfate. The enzymes responsible are NADPH-dependent dehydrogenases, which are active in viable cells. Briefly, cells (5 × 10^4/well) were seeded in 96-well plates in medium with 10% FBS; after 24 h, the complete medium was replaced with fresh medium containing 1% FBS and incubated for 24 h. Fresh stock solutions were prepared on the day of the experiment, and the cells were treated with different concentrations of vemurafenib and analogs (0.01, 0.1, 0.5, 1, 5, and 10 μM). Effects were evaluated after 24 h. Untreated cells were incubated as controls. Following drug exposure, MTS was added, and the absorbance was measured at 570 nm using a microplate reader (CLARIOStar Plus, BMG LabTech, Ortenberg, Germany).
(§3) All the values of in vitro experiments are presented as the mean ± standard error of three independent experiments. Statistical analyses were performed via a one-way ANOVA with Dunnett’s post hoc test, and statistical significance was defined as * p < 0.05. IC50 values were calculated by non-linear regression analysis using an Inhibitor vs. normalized response model curve fit, as implemented. Statistical analyses were performed with GraphPad Prism 10.1.2 (GraphPad Software Inc., San Diego, CA, USA).

[2] = system: non-tumor HEK293T cell line; assay: MTS cell viability assay, HEK293T; assay type: cell-based, human; conditions: for IC50: Homo sapiens, HEK-293T, 24 h treatment; for Selectivity Index: IC50 HEK293T divided by IC50 A375
Description: as §1, §2, §3

A375 cells = assay: TUNEL DNA fragmentation assay; assay type: cell-based, human; conditions: 5 μM, 24 h
Description: To detect DNA fragmentation in A375 cells, a modified apoptosis TUNEL method was used with the MEBSTAIN Apoptosis TUNEL Kit Direct (MBL International Corporation, Woburn, MA, USA) according to the manufacturer’s protocol. Briefly, cells were grown in 8-well culture slides (Corning, NY, USA) and incubated with the compounds (5 μM) for 24 h. Following treatments, the cells were washed with PBS and subsequently stained with TdT buffer, TdT solution, and Propidium Iodide, according to the manufacturer’s instructions. Experiments were conducted by fluorescent microscopy. The images were collected by an EVOS M5000 microscope (Thermo Fisher Scientific, Waltham, MA, USA).

MMP-2 = assay: Gelatin zymography, MMP-2 in A375 conditioned media; assay type: cell-based, human; conditions: A375 cells, 1 μM and 5 μM, 24 h
Description: (§4) The potential effects of vemurafenib and its analogs on MMP-2 and MMP-9 activity in A375 cells were evaluated using gelatin zymography to detect gelatinolytic activity in conditioned media.
(§5) Gelatin zymography was carried out according to [30], using 7.5% SDS-polyacrylamide gels with 0.2% (w/v) gelatin. SDS-PAGE was run at 100 V at room temperature. Following electrophoresis, the gels were removed and placed in 2.5% (v/v) Triton X-100 to renature enzymes for 60 min. Then, gels were incubated in 50 mM Tris-HCl, 1 μM ZnCl2, 5 mM CaCl2, pH 7.5, overnight, to allow sufficient time for genatinolytic activity to occur. Following overnight incubation at 37 °C, gels were incubated in a staining solution (0.5% (v/v) Coomassie blue in a 40% methanol-10% acetic acid-water mixture) for 60 min. Following incubation, the staining solution, the gels were washed with the destaining solution (without coomassie blue) until the time to start to see the bands. Then imaged with a ChemiDoc^TM MP (BIO-RAD, Hercules, CA, USA) gel imaging system. Total protein and gelatinase activity were quantified using Image Lab™ Software 6.1 (BIO-RAD, Hercules, CA, USA).

MMP-9 = assay: Gelatin zymography, MMP-9 in A375 conditioned media; assay type: cell-based, human; conditions: A375 cells, 1 μM and 5 μM, 24 h
Description: as §4, §5

Row | SMILES | IC50 [1] | IC50 ([2]; HEK293T cells, MTS) | Selectivity Index [2] | DNA fragmentation / TUNEL-positive apoptotic cells (A375 cells) | MMP-2 expression and activity (MMP-2) | cytotoxicity toward HEK293T cells ([2]; HEK293T cells, MTS) | MMP-9 expression and activity (MMP-9) | MMP-2 expression and activity (MMP-2; listed as RF-87A)
1 | O=C(N/N=C/c1c[nH]c2ncc(Br)cc12)c1cnccn1 [RF-94A (2c), (E)-N-((5-Bromo-1H-pyrrolo[2,3-b]pyridin-3-yl)methylene)pyrazine-2-carbohydrazide] | 53 µM | 25.8 µM | 0.49 | higher number of apoptotic cells | reduced |  |  | 
2 | O=C(N/N=C/c1c[nH]c2ncc(Br)cc12)c1ccc2c(c1)CCCC2 [RF-86A (2a), (E)-N-((5-Bromo-1H-pyrrolo[2,3-b]pyridin-3-yl)methylene)-5,6,7,8-tetrahydronaphthalene-2-carbohydrazide] | 6.99 µM | 114 µM | 16.37 |  | reduced |  |  | 
3 | CCCS(=O)(=O)Nc1ccc(F)c(C(=O)c2c[nH]c3ncc(-c4ccc(Cl)cc4)cc23)c1F [Vemurafenib] | 7.68 µM | > 1000 µM | >1000 |  |  | no cytotoxicity | upregulated | 
4 | O=C(N/N=C/c1c[nH]c2ncc(Br)cc12)c1ccccn1 [RF-87A (2b), (E)-N-((5-Bromo-1H-pyrrolo[2,3-b]pyridin-3-yl)methylene)picolinohydrazide] | 47.2 µM | 142 µM | 3.01 |  | reduced |  |  | reduced MMP-2 activity only at the lower concentration (1 μM)
5 | O=C(N/N=C/c1c[nH]c2ncc(Br)cc12)c1cnc2ccccc2n1 [RF-94B (2d), (E)-N-((5-Bromo-1H-pyrrolo[2,3-b]pyridin-3-yl)methylene)quinoxaline-2-carbohydrazide] | 46.3 µM | 25.5 µM | 0.55 |  |  |  |  | 
